The nature of data set [1]: Solubility assay at pH 7 and in FaSSIF. The note with it: thermodynamic from solid. It counts as physicochemical. The protocol:
A number of compounds of the present invention were assayed in a solubility assay at pH 7 and in fasted state simulated intestinal fluid (FaSSIF).
Solubility of the compounds was determined by suspending about 0.3 to 1.0 mg of drug substance in 0.1 mL of phosphate buffer at pH 7 and respectively FaSSIF.
Buffer pH 7 was obtained from MERCK as Tritisol® Phosphate Buffer. The Medium to Simulate the Fasted State Upper Small Intestine (Fasted State Simulated Intestinal Fluid) or FaSSIF was developed according to J. Dressmann publication Jantratid Ekarat; Janssen Niels; Reppas Christos; Dressman Jennifer B Dissolution media simulating conditions in the proximal human gastrointestinal tract: an update. Pharmaceutical research (2008), 25(7), 1663-76.
Composition from the FaSSIF is described in the following Table 3.
The suspensions or solutions were stirred over night at room temperature. After separation of the un-dissolved part by filtration (centrifugation using 0.45 μm PVDF or PTFE filters), the solutions were if necessary, diluted with acetonitrile to obtain concentrations below 1.0 mg/mL prior to UPLC analysis. Samples were then analyzed by UPLC to get the concentrations level of compound in the different media. Prior to analysis a method has been developed for each compound with an according calibration.
UPLC parameters: Column Aquity50*2.1 mm C18 1.7ym; Column temperature: 40° C.; mobile phase A: water MilliQ+0.1% TFA and B acetonitrile, gradient grade, +0.1% TFA.

Data set [2] relates to MET-amplified gastric cancer cell line GTL-16. Nature of the data set: GTL-16 proliferation assay (MTS). It counts as cell-based. The note with it: Homo sapiens, GTL-16 cells, 72 h incubation. Put shortly: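 GTL-16 cells were seeded at 3000/well in DMEM with 10% FCS. After 24 h they were treated in triplicate with a 10-point, 3-fold dilution series ([…]; DMSO-only control) for 72 h. Viable cells were measured by MTS, with OD 490 nm read after 30 min.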

For another data set, the target named is T1, c-Met (Homo sapiens, UniProt P08581).
T1 construct: adapted to measure the phosphorylation of endogenous cellular proteins in cell lysates; endogenous in cells; host or cells: GTL-16
Nature of the data set: GTL-16 c-Met autophosphorylation measured by AlphaScreen detection. The format is cell-based. The conditions noted are these: GTL-16 cells, 1 h incubation, AlphaScreen p-c-Met; read-out: GTL-16 IC50 c-Met phosphorylation. The procedure, abridged: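 GTL-16 MET-amplified gastric cancer cells, serum-free DMEM with 0.1% BSA, exposed to 8-point compound dilutions for 1 h at 37° C (0.11% DMSO final). Lysates probed for phospho-c-Met by AlphaScreen using anti-c-Met antibody, biotinylated PY20 phosphotyrosine antibody, Protein A acceptor and streptavidin donor beads.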
A general note: Bead proximity is the source of the signal in Alpha formats.

Where [3] appears, read: FaSSIF (fasted state simulated intestinal fluid), fassif, fasted state simulated intestinal fluid, stirred over night at room temperature, read-out: Solubility FaSSIF.
Setting [4] is: aqueous buffer, phosphate buffer pH 7, stirred over night at room temperature, read-out: Solubility Buffer pH 7.

SMILES strings stand for the structures. ≈ marks a conversion by molar mass, not a printed value. Like-named read-outs stand apart in the source and are kept apart here.

T1 sequence (P08581 25-1390): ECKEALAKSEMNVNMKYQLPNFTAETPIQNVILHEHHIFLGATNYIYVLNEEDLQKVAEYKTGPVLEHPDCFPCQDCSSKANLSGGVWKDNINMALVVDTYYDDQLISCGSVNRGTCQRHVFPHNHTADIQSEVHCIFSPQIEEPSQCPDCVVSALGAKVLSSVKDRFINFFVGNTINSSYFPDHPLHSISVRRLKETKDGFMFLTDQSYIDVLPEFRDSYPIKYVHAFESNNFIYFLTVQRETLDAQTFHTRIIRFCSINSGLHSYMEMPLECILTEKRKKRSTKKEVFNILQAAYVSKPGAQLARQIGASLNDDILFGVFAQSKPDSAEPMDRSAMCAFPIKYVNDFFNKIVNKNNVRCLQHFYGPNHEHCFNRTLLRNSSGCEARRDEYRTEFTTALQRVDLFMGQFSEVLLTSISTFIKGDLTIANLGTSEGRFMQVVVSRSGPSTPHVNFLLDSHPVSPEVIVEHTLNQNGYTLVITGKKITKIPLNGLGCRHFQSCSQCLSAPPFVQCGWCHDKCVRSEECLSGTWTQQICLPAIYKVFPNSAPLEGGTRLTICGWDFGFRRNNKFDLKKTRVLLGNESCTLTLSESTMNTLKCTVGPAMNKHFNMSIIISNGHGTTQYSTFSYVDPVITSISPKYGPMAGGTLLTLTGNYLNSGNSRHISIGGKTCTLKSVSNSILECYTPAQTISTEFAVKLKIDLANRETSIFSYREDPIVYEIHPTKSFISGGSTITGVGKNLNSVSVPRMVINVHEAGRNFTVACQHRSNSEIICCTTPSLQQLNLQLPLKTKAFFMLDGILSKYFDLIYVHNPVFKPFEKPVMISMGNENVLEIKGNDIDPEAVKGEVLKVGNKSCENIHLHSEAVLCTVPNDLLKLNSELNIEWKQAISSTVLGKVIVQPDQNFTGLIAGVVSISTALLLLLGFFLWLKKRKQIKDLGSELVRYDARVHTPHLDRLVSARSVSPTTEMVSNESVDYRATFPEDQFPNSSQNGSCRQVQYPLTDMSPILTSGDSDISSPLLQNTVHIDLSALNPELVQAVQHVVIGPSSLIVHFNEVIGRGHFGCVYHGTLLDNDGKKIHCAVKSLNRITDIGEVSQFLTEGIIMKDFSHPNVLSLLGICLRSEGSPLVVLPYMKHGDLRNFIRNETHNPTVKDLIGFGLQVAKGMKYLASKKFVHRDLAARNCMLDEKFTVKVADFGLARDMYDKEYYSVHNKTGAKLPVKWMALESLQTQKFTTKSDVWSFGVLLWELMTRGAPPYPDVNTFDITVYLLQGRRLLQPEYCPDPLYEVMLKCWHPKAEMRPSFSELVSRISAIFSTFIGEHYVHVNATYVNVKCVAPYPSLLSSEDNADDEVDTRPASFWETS

In the case of `C[C@@H](c1cc2cnn(C)c2cc1F)c1cnc2ccc(N3CCNC(=O)C3)nn12` [Example 28, 4-{3-[(S)-1-(6-Fluoro-1-methyl-1H-indazol-5-yl)-ethyl]-imidazo[1,2-b]pyridazin-6-yl}-piperazin-2-one], the results for the solubility in data set [1] (setting [3]) and in data set [1] (setting [4]) were 374 µg/mL (≈ 951 µM) and 117 µg/mL (≈ 297 µM), respectively. Moreover, the 50% inhibitory concentration (IC50) (in general, the concentration that inhibits the measured activity by half) in data set [2] worked out at 26 nM; on c-Met it was 11 nM.

Consider `C[C@@H](c1c(F)cc2ncccc2c1F)c1cnc2ccc(N3CCNCC3)nn12` [Example 7, 5,7-Difluoro-6-[(S)-1-(6-piperazin-1-yl-imidazo[1,2-b]pyridazin-3-yl)-ethyl]-quinoline], for which the solubility (commonly the concentration that dissolves in the medium under given conditions) is 172 µg/mL (≈ 436 µM) in data set [1] (setting [3]) and 248 µg/mL (≈ 629 µM) in data set [1] (setting [4]). The 50% inhibitory concentration (IC50) in data set [2] was found to be 6.4 nM; at c-Met, 2.1 nM.

For `C[C@@H](c1c(F)cc2ncccc2c1F)c1cnc2ccc(N3CCNC(=O)C3)nn12` (single isomer, unassigned) [Example 5], the solubility in data set [1] (setting [3]) is 164 µg/mL (≈ 402 µM); in data set [1] (setting [4]), 91 µg/mL (≈ 223 µM). Also, the figures for the IC50 (in data set [2]; at c-Met) were 3.6 nM and < 3 nM, respectively.

On to `C[C@@H](c1c(F)cc2ncccc2c1F)c1cnc2ccc(N3CCN(C)C(=O)C3)nn12` [Example 2, 4-{3-[(S)-1-(5,7-Difluoro-quinolin-6-yl)-ethyl]-imidazo[1,2-b]pyridazin-6-yl}-1-methyl-piperazin-2-one], for which the figures for the solubility in data set [1] (setting [3]) and in data set [1] (setting [4]) were 289 µg/mL (≈ 684 µM) and 29 µg/mL (≈ 68.6 µM), respectively. Also, the values for the half-maximal inhibitory concentration (IC50) (in data set [2]; on c-Met) were 1.7 nM and 2.7 nM, respectively.

Take `CC(=O)N1CCN(c2ccc3ncc([C@@H](C)c4c(F)cc5ncccc5c4F)n3n2)CC1` [Example 11, 1-(4-{3-[(S)-1-(5,7-Difluoro-quinolin-6-yl)-ethyl]-imidazo[1,2-b]pyridazin-6-yl}-piperazin-1-yl)ethanone]: the solubility was 1350 µg/mL (≈ 3100 µM) in data set [1] (setting [3]) and 32 µg/mL (≈ 73.3 µM) in data set [1] (setting [4]). Further, the IC50 in data set [2] was 7.2 nM; at c-Met, 4.4 nM.

These data come from patent US8389526B2, “3-heteroarylmethyl-imidazo[1,2-b]pyridazin-6-yl derivatives” (Novartis AG, priority 2009, dated 2013).
